In ChEMBL document CHEMBL5126580, “Design, synthesis and biological evaluation of 2-pyrrolone derivatives as radioprotectors” (Bioorg Med Chem, 2022):
Calls of active or inactive are those of the source. No cut-off for these calls is given here.

Legend:
[1] = molecular target: Cellular tumor antigen p53 (Homo sapiens) (UniProt P04637); assay: Inhibition of p53 in human MOLT-4 cells assessed as suppression of gamma-irradiation-induced decrease in cell viability at 20 to 100 uM preincubated for 1 hr followed by 10 Gy 137Cs gamma-ray exposure and measured after 27 hrs by erythrosin B staining based dye exclusion assay; settings: dose 20-100 µM, time 28.0 hrs
Sequence of Cellular tumor antigen p53 (Homo sapiens) (P04637 whole entry, looked up): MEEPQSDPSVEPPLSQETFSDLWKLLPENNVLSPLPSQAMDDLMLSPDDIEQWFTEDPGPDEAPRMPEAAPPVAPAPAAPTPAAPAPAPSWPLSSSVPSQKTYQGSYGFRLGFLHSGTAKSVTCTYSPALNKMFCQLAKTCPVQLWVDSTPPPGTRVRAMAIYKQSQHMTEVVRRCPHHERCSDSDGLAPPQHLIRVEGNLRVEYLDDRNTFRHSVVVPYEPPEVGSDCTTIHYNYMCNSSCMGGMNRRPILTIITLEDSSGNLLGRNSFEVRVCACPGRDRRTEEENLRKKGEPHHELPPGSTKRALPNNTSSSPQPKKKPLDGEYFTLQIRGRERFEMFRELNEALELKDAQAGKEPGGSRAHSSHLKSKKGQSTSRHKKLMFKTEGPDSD

MOLT-4 [2] = assay: Cytotoxicity against human MOLT-4 cells assessed as reduction in cell viability measured after 1 hr by erythrosin B staining based dye exclusion assay; type: toxicity; settings: molt-4, 1 h
[3] = molecular target: Cellular tumor antigen p53 (Homo sapiens) (UniProt P04637); assay: Inhibition of p53 in human MOLT-4 cells assessed as suppression of gamma-irradiation-induced decrease in cell viability at 50 to 100 uM preincubated for 1 hr followed by 10 Gy 137Cs gamma-ray exposure and measured after 27 hrs by erythrosin B staining based dye exclusion assay; settings: dose 50-100 µM, time 28.0 hrs
MOLT-4 [4] = assay: Radioprotective activity in gamma-irradiated human MOLT-4 cells assessed as reduction in p53 expression at 3 to 100 uM preincubated for 1 hr followed by 10 Gy 137Cs gamma-ray exposure and measured after 6 hrs by Western blot analysis; type: functional, cell-based; settings: dose 3-100 µM, time 7.0 hrs
MOLT-4 [5] = assay: Cytotoxicity against human MOLT-4 cells assessed as reduction in cell viability at 80 uM measured after 1 hr by erythrosin B staining based dye exclusion assay; type: toxicity; settings: molt-4, 1 h
[6] = molecular target: Cellular tumor antigen p53 (Homo sapiens) (UniProt P04637); assay: Inhibition of p53 in human MOLT-4 cells assessed as suppression of gamma-irradiation-induced decrease in cell viability at 20 uM preincubated for 1 hr followed by 10 Gy 137Cs gamma-ray exposure and measured after 27 hrs by erythrosin B staining based dye exclusion assay; settings: time 28.0 hrs
[7] = molecular target: Cellular tumor antigen p53 (Homo sapiens) (UniProt P04637); assay: Inhibition of p53 in human MOLT-4 cells assessed as suppression of gamma-irradiation-induced decrease in cell viability at 40 uM preincubated for 1 hr followed by 10 Gy 137Cs gamma-ray exposure and measured after 27 hrs by erythrosin B staining based dye exclusion assay; settings: time 28.0 hrs
MOLT-4 [8] = assay: Cytotoxicity against human MOLT-4 cells assessed as reduction in cell viability at 40 uM measured after 1 hr by erythrosin B staining based dye exclusion assay; type: toxicity; settings: molt-4, 1 h
MOLT-4 [9] = assay: Cytotoxicity against human MOLT-4 cells assessed as reduction in cell viability at 10 to 20 uM measured after 1 hr by erythrosin B staining based dye exclusion assay; type: toxicity; settings: molt-4, 1 h, dose 10-20 µM

SMILES | inhibition [1] | Activity (MOLT-4 [2]) | also measured
COC(=O)C1=C(C)N(c2ccccc2OC)C(=O)/C1=C\c1ccc(C(=O)O)cc1 | Active | – | –
COC(=O)C1=C(C)N(c2ccccc2)C(=O)/C1=C\c1ccc(C(=O)O)cc1 | Active | – | –
CCCCCCOc1cccc(N2C(=O)/C(=C\c3ccc(C(=O)O)cc3)C(C(=O)OC)=C2C)c1 | – | Toxic | –
CNC(=O)C1=C(C)N(c2cccc(OC)c2)C(=O)/C1=C\c1ccc(C(=O)O)cc1 | – | – | inhibition [3]: Active
COC(=O)C1=C(C)N(c2cccc(OC)c2)C(=O)/C1=C\c1cncnc1 | – | Toxic | –
COC(=O)C1=C(C)N(c2cccc(OC)c2)C(=O)/C1=C\c1ccc(Cl)cc1 | – | Toxic | –
CCOC(=O)C1=C(C)N(c2cccc(OC)c2)C(=O)/C1=C\c1ccc(C(=O)O)cc1 | Active | – | –
COC(=O)C1=C(C)N(c2cccc(OC)c2)C(=O)/C1=C\c1ccc(C(=O)O)cc1 | – | – | Activity (MOLT-4 [4]): Active; Activity (MOLT-4 [5]): Toxic; inhibition [6]: Active
COC(=O)C1=C(C)N(c2cccc(OC)c2)C(=O)/C1=C\c1ccc([N+](=O)[O-])cc1 | – | Toxic | –
COC(=O)C1=C(C)N(c2cccc(OC)c2)C(=O)C1=Cc1ccc(C(=O)O)cc1 | Active | – | –
COC(=O)C1=C(C)N(c2cccc(OC)c2)C(=O)/C1=C/c1ccc(C(=O)O)cc1 | Active | – | –
COC(=O)C1=C(C)N(c2cccc(O)c2)C(=O)/C1=C\c1ccc(C(=O)O)cc1 | – | – | inhibition [3]: Active
COC(=O)C1=C(C)N(c2cccc(OC)c2)C(=O)/C1=C\c1cccc(C(=O)O)c1 | Active | – | –
COC(=O)C1=C(C)N(c2cccc(OC)c2)C(=O)/C1=C\c1ccc(OC)cc1 | – | Toxic | –
COC(=O)C1=C(C)N(c2cccc(OC)c2)C(=O)/C1=C\c1ccccc1S(=O)(=O)[O-].[Na+] | – | Non-Toxic | –
COc1cccc(N2C(=O)/C(=C\c3ccc(C(=O)O)cc3)C(C(=O)OC(C)(C)C)=C2C)c1 | – | Toxic | –
COC(=O)C1=C(C)N(c2cccc(OC(C)C)c2)C(=O)/C1=C\c1ccc(C(=O)O)cc1 | – | – | Activity (MOLT-4 [4]): Active; Activity (MOLT-4 [5]): Toxic; inhibition [6]: Active
CCCCCCOC(=O)C1=C(C)N(c2cccc(OC)c2)C(=O)/C1=C\c1ccc(C(=O)O)cc1 | – | Toxic | –
CCOC(=O)c1ccc(/C=C2\C(=O)N(c3cccc(OC)c3)C(C)=C2C(=O)OC)cc1 | – | Toxic | –
COC(=O)C1=C(C)N(c2cccc(OC)c2)C(=O)/C1=C\c1ccc(S(N)(=O)=O)cc1 | – | Toxic | –
COC(=O)C1=C(C)N(c2cccc(OC)c2)C(=O)/C1=C\c1ccc(-c2nnn[nH]2)cc1 | Active | – | Activity (MOLT-4 [4]): Active
COC(=O)C1=C(C)N(c2cccc(OC)c2)C(=O)/C1=C\c1ccncc1O | – | Toxic | –
COC(=O)C1=C(C)N(c2cccc(OC)c2)C(=O)/C1=C\c1ccc(C(=O)NO)cc1 | – | – | inhibition [7]: Active; Activity (MOLT-4 [8]): Non-Toxic; Activity (MOLT-4 [9]): Toxic
COC(=O)C1=C(C)N(c2cccc(OC)c2)C(=O)/C1=C\c1ccncc1 | – | Toxic | –
COC(=O)C1=C(C)N(c2ccc(OC)cc2)C(=O)/C1=C\c1ccc(C(=O)O)cc1 | Active | – | –
